According to PMC10766610, “DCAF1-based PROTACs with activity against clinically validated targets overcoming intrinsic- and acquired-degrader resistance” (Nature Communications, 2024):

Key:
[1] = molecular target: T1, DCAF1(WDR) with additional 10 µM BRD9-BD(130-250) (Homo sapiens, UniProt Q9H8M2+Q9Y4B6, E1398S); experiment: DCAF1 TR-FRET, cooperative format with 10 µM BRD9-BD(130-250); format: binding; conditions: read-out: TR-FRET Q. IC50 [μM], + BRD9
T1 construct: 2 nM human DCAF1(1073-1399)_E1398S-Avi-His; human BRD9-BD(130-250) in the cooperative assay; His6 (C); GST (PreScission site) (N, cleaved yes); made in house; host or cells: DCAF1: Sf9 with BirA; BRD9: E. coli Rosetta (pGEX6P1)
T1 sequence (Q9Y4B6 1073-1399 E1398S): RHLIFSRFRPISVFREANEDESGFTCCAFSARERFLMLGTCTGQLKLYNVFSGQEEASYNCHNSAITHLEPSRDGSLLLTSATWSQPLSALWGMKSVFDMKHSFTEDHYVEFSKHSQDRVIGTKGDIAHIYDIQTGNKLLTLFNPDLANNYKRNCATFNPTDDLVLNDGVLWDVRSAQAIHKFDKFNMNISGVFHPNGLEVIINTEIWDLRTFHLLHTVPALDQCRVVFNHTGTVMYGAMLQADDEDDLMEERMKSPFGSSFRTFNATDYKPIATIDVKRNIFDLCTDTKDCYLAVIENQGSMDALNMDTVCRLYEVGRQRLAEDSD
T1 sequence (Q9H8M2 130-250): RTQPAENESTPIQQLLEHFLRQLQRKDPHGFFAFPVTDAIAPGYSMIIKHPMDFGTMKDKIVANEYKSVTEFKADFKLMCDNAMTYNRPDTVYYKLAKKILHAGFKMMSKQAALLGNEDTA
Method: Competition assay conditions consist of 20 µL total volume in white 384-well plates (Greiner), in 30 mM phosphate buffer pH 7.4 containing 140 mM NaCl, 0.01% Tween20, 1 mM TCEP and 1% final DMSO. Tested compounds at 14 different concentrations were pre-incubated at 22 °C for 30 min with a large excess of 10 µM human BTK (G389-S659) or 10 µM human BRD9-BD(130-250) in the cooperative assay or with buffer in standard binary assay. […] Samples were then incubated at 22 °C for 30 min before reading using a Tecan infinite M-1000 or PheraStar FSX (excitation 340 nm, emission 490 and 520 nm). DCAF1 protein was omitted in the negative control. IC50 fitting was carried out using an in-house developed software (Novartis Helios software application, unpublished, a publicly available alternative would be e.g., Graphpad Prism) using the methods described by Fomenko et al.[93] (regression algorithms for nonlinear dose-response curve fitting). Following normalization of activity values for the wells to % inhibition (% inhibition = [(high control-sample)/(high control-low control)] × 100). Data analysis could also be carried out using GraphPad Prism without prior normalization. The reported IC50 values are the average of at least two independent experiments.

[2] = molecular target: BTK (Homo sapiens, UniProt Q06187); experiment: Immunoblot of BTK in TMD8 WT and CRBN (CBt) resistant cells; format: cell-based; set-up: performed with full-length BTK and endogenous DCAF1; expressed in transfected cells; host or cells: TMD8 cells, lentiviral, blasticidin-selected (TMD8 BTK-GFP/mCh); conditions: 24 h; 0.1 µM CBt, 1 µM DBt-10
Sequence of BTK (Q06187 2-659 limits assumed): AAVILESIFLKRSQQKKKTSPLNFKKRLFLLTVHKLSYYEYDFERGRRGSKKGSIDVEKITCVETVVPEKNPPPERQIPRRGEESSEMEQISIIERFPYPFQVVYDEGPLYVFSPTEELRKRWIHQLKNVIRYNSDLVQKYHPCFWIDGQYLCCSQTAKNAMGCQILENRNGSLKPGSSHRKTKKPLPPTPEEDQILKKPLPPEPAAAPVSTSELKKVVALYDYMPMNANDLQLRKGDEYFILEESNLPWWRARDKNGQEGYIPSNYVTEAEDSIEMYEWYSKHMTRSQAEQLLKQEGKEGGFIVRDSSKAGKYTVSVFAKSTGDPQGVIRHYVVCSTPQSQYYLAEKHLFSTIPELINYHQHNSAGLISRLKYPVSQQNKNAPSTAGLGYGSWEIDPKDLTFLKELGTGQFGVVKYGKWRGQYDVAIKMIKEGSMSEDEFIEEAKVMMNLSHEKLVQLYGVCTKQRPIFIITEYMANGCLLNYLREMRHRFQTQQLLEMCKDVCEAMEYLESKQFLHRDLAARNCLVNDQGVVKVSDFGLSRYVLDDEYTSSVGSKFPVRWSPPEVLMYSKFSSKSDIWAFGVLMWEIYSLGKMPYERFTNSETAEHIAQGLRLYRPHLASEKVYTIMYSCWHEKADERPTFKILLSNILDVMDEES
Method: (§1) Whole cell lysates for immunoblotting were prepared by pelleting cells at 4 °C (300 g) for 3 min. Cell pellets were then washed 1x with PBS and resuspended in RIPA lysis buffer (VWR, cat # 97063-270) supplemented with protease (Thermo Scientific, cat # A32955) and phosphatase (Thermo Scientific, cat # A32957) inhibitor tablets. Lysates were clarified at 16,000 × g for 15 min at 4 °C prior to quantification by Lowry assay (Bio-Rad cat # 5000113 and cat # 5000114). Whole-cell lysates were loaded into 4–20% Criterion TGX Precast 18 well gels (Bio-Rad, cat # 5671094) and separated by electrophoreses at 120 V for 1 h. The gels were transferred to a nitrocellulose membrane using the Trans-Blot Turbo (Bio-Rad) for 7 min and then blocked for 1 h at room temperature in Odyssey blocking buffer (LICOR Biosciences, cat # 927-50000). Membranes were probed with the appropriate primary antibodies (diluted 1:1000) overnight at 4 °C in 20% Odyssey blocking buffer in 1x TBST. Membranes were washed three times with 1x TBST (5 min per wash), and then incubated with IRDye goat anti-mouse (LICOR, cat # 926-32210) or goat anti-rabbit (LICOR, cat # 926-32211) secondary antibody diluted 1:10,000 in 20% Odyssey blocking buffer for 1 h at room temperature. After three 5-min washes with 1x TBST, the immunoblots were visualized using the ODYSSEY Infrared Imaging System (LICOR). […]

[3] = molecular target: T2, LIMK2 (Homo sapiens, UniProt P53671); experiment: Immunoblot of LIMK2 in HEK293T cells; format: cell-based; conditions: 6 h
T2 construct: host or cells: HEK293T
T2 sequence (P53671 whole entry): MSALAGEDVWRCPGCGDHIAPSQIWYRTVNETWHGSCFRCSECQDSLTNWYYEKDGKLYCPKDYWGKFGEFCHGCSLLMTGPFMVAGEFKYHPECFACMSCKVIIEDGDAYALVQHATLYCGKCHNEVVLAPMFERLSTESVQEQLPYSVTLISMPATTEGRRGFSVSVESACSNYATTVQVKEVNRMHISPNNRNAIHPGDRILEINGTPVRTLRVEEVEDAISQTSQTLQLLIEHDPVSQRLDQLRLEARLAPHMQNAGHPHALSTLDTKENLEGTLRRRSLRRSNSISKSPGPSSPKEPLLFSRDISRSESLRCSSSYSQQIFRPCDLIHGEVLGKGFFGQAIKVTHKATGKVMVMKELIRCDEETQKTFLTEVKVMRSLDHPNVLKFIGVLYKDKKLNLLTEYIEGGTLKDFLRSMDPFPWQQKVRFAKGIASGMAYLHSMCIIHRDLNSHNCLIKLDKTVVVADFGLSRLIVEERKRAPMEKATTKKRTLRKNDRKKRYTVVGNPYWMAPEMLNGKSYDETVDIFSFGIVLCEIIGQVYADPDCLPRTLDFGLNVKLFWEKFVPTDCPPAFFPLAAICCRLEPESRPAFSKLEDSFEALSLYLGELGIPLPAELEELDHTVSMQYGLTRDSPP
Method: as §1

[4] = molecular target: T3, LYN (Homo sapiens, UniProt P07948); experiment: Immunoblot of LYN in HEK293T cells; format: cell-based; conditions: 6 h
T3 construct: host or cells: HEK293T
T3 sequence (P07948 whole entry): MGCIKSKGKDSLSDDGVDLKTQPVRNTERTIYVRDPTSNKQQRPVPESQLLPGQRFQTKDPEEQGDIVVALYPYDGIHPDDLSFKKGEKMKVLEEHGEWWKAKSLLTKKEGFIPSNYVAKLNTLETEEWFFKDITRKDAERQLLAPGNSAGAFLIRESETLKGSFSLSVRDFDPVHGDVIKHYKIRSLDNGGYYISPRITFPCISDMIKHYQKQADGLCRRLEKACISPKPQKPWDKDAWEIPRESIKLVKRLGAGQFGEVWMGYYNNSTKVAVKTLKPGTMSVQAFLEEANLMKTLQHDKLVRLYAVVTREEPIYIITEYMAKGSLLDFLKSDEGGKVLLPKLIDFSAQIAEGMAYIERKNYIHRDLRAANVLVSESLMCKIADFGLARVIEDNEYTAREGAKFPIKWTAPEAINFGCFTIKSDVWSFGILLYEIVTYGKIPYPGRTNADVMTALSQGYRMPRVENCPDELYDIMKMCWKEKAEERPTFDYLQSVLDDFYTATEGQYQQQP
Method: as §1

[5] = tested on: TMD8 BTK-GFP/mCh cells; experiment: Viability by FSC/SSC gate (flow cytometry) in TMD8 BTK-GFP/mCh cells; format: cell-based, human
Outline: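 TMD8 BTK-GFP/mCh cells (25,000/well) dosed with compound for 24 h and analysed by flow cytometry. Viability is the decline in percentage of single cells within an FSC/SSC gate defined by DMSO-treated cells; three biological replicates, 4-parameter logistic fit.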

## COc1cc(-c2cn(C)c(=O)c3cnccc23)c(OC)cc1CN1CCC(OCCCCCC(=O)N2CCN(c3ccc4c(NCCN)nc(C5(c6ccc(Cl)cc6)CCCCC5)nc4c3)CC2)CC1 [DBr-1]
[1]
  IC50: 0.002 µM

## Cc1c(NC(=O)N2CC(O)(CC(C)(C)C)C2)cc(F)cc1-c1ncnc2[nH]c(-c3cnn(CC(=O)N4CCC5(CC4)CN(CCNC(=O)CCCC(=O)N4CCN(c6ccc7c(NCCN)nc(C8(c9ccc(Cl)cc9)CCCCC8)nc7c6)CC4)CCO5)c3)cc12 [DBt-10]
[2]
  BTK degradation in TMD8 CBt sensitive (WT) vs resistant cells: equipotent degradation of BTK

## Cc1nc(Nc2ncc(C(=O)Nc3c(C)cccc3Cl)s2)cc(N2CCC(OC3CCN(CCCCCCCC(=O)N4CCN(c5ccc6c(NCCN)nc(C7(c8ccc(Cl)cc8)CCCCC7)nc6c5)CC4)CC3)CC2)n1 [DDa-1]
[3]
  LIMK2 protein levels: significant reduction in protein levels
[4]
  LYN protein levels: not

## CC(=O)N1CCN(c2ccc3c(NCCN)nc(C4(c5ccc(Cl)cc5)CCCCC4)nc3c2)CC1 [compound 13]
[5]; TMD8 BTK-GFP/mCh, 24 h
  concentrations with loss of viability: > 5 µM
[5]; discussion
  concentrations leading to cellular toxicity: 5 to 10 µM
